Reference: US20260174855A1 (priority 2022, published 2026)

What was measured:
[1] = 4 mg/kg i.v.; data not shown
[2] = for NorBUP in fetal brains or maternal plasma: 1 or 3 mg/kg/day s.c. minipump, GD 9-20
hDOR = hDOR (Homo sapiens, UniProt P41143); assay: [35S]GTPγS binding, G-protein activation; type: biochemical; conditions: for type of activity at hDOR: 1 μM, no activation; for Emax at 1 µM: hDOR, determined from single-concentration (1 μM) experiments, read-out: Emax (% of vehicle)
rats = assay: warm water tail withdrawal assay (antinociception); conditions: for % MPE (at 0.1 mg/kg): 0.1 mg/kg i.v., mean (95% confidence interval); for ED50: Rattus norvegicus, iv
hMOR = hMOR (Homo sapiens, UniProt P35372); assay: biochemical; conditions: read-out: Emax (% of vehicle)
Chain of hMOR (P35372 whole entry): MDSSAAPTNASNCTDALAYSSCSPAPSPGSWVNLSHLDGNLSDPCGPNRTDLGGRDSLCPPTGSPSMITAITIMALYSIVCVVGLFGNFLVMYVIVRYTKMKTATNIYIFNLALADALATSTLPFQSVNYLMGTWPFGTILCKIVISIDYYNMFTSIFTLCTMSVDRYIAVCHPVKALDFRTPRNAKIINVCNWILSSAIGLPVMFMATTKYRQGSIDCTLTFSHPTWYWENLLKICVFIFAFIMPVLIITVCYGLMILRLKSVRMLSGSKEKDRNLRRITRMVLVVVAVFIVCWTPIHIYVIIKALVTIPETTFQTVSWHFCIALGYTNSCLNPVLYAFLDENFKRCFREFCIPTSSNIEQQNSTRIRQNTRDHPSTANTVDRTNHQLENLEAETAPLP

Chain of hDOR (P41143 whole entry): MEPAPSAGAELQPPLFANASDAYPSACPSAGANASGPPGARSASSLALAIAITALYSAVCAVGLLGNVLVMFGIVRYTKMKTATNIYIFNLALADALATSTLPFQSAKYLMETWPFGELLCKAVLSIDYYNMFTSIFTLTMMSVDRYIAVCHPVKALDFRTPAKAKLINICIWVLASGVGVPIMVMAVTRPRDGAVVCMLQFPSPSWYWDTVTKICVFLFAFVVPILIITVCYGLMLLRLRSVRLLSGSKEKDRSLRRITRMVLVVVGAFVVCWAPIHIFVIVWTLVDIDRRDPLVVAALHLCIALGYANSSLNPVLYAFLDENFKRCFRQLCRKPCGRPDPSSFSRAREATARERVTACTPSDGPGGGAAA

| SMILES | area under the NorBUP glucuronide curve, BUP versus BUP-D2 group [1] | NorBUP in fetal brains or maternal plasma [2] | type of activity at hDOR (hDOR) | Emax at 1 µM (hDOR) | % MPE (at 0.1 mg/kg) (rats; 10 minutes) | % MPE (at 0.1 mg/kg) (rats; 60 minutes) | ED50 (rats; 10 min) | ED50 (rats; 1 h) | area under the curve vs. BUP ([2]; maternal plasma, data not shown) | Emax (hMOR) |
| --- | --- | --- | --- | --- | --- | --- | --- | --- | --- | --- |
| CO[C@@]12CC[C@@]3(C[C@@H]1[C@](C)(O)C(C)(C)C)C1Cc4ccc(O)c5c4[C@@]3(CCN1CC1CC1)[C@H]2O5 [BUP, buprenorphine] | significantly greater | detected no NorBUP | neutral antagonists of hDORs | 114% | 90.1 (68.8-111.4) % MPE | 96.8 (83.2-110.5) % MPE | 0.025 mg/kg | 0.021 mg/kg | – | – |
| [2H]C([2H])(C1CC1)N1CC[C@]23c4c5ccc(O)c4O[C@H]2[C@@]2(OC)CC[C@@]3(C[C@@H]2[C@](C)(O)C(C)(C)C)C1C5 [BUP-D2, (4aS,6R,7R,7aR,12bS)-3-(cyclopropylmethyl-d2)-6-((S)-2-hydroxy-3,3-dimethylbutan-2-yl)-7-methoxy-1,2,3,4,5,6,7,7a-octahydro-4a,7-ethano-4,12-methanobenzofuro[3,2-e]isoquinolin-9-ol] | – | detected no NorBUP | neutral antagonists of hDORs | 107% | 84.4 (43.5-125.2) % MPE | 97.9 (89.1-106.8) % MPE | 0.021 mg/kg | 0.018 mg/kg | significantly greater | – |
| C[C@@H](NC(=O)[C@@H](N)Cc1ccc(O)cc1)C(=O)NCC(=O)N(C)[C@@H](Cc1ccccc1)C(=O)NCCO [DAMGO] | – | – | – | – | – | – | – | – | – | 308% |
